Source: patent US8969565B2, “Imidazo[1,2-b]pyridazine-based compounds, compositions comprising them, and methods of their use” (Lexicon Pharmaceuticals, Inc., priority 2012, dated 2015)

Biological target: T1, AAK1 (Homo sapiens, UniProt Q2M2I8)
T1 construct: HA; expressed in transfected cells; host or cells: HEK293F
Assay: HEK281 cell-based assay (phospho-mu2 Western blot in transfected HEK293F cells)
Details: 3 hours incubation, read-out: CBA IC50
Experimental: HEK293F cells were cultured in media containing DMEM (Gibco, cat. #11965), 10% FBS (SAFC Biosciences, cat. #12103C), 1×GPS (glutamine, penicillin and streptomycin). On day one, cells were plated on a 10 cm dish so that they are ˜80% confluent at time of transfection. Roughly 12 million cells were in a 10 cm dish at time of transfection. On day two, each dish was transfected with 48 ug DNA and 144 ul Lipofectamine 2000 (Invitrogen, cat.#11668-019). The DNA was comprised of a mixture (per 10 cm dish) containing 3 ug AAK1/HA/pIRES (full length human, NCBI accession no. NP_055726.2), 45 μg Flag/AP2MI/pcDNA (full length human), and 1.5 ml OPTI-MEM. The Lipofectamine 2000 is made up of a mixture (per 10 cm dish) containing 144 μl Lipofectamine 2000 and 1.5 ml OPTI-MEM. Each mixture was transferred to individual 15 ml tubes and incubated at RT for 5 minutes, and then the two mixes were combined and incubated at RT for 20 minutes. Growth media was then aspirated from each 10 cm plate and replaced with 10 ml of DMEM+10% FBS (no GPS). Finally, 3 ml DNA/Lipofectamine mix was added to each 10 cm dish and mix gently followed by incubate of plate overnight at 37° C. and 5% CO2.
On day three, compounds were diluted in 100% DMSO at 1000× final concentration, followed by 3-fold serial dilutions for a total of 5 concentrations tested. Four compounds were tested per 10 cm dish. One ul of each compound dilution was then pipetted into a deep-well, 96-well plate, followed by addition of 500 μl DMEM+0.5% FBS into each well for a 2× final concentration of each compound. Cells were resuspended in a 10 cm dish by simple pipetting (HEK293 cells come off the plate that easy at this point) and then transferred to a 50 ml conical tube and pelleted by centrifugation at 1000 rpm for 5 min. Cell pellets were then resuspended in 2.75 ml DMEM+0.5% FBS per 10 cm dish and 100 μl of cell suspension transferred into each well of 96-well TC plate. Finally, 100 μl of 2× compound diluted in DMEM+0.5% FBS was then added into wells containing cell suspension for a 1× final concentration. Plates were then incubated at 37° C. and 5% CO2 for 3 hours followed by transferring of cell suspensions from each well into 12-tube PCR strips. The PCR strips were spun in a tip rack at 1000 rpm for 5 minutes to pellet cells and media was then removed by pipetting without disturbing the cell pellet.
To prepare for Western Blot analysis, cell pellets were resuspend in 40 ul 1×LDS-PAGE sample buffer (Invitrogen, cat.#NP0008)+2× Halt phophatase and protease inhibitor cocktail (Thermo Scientific, cat.#1861284), followed by sonicating each with microtip sonicator set at 5 for 8-10 seconds. Five ul of 10× NuPage Sample Reducing Agent (with 50 mM DTT) was to each sample followed by heat denaturing at 70 C for 10 min on PCR machine. A total of 10 μl per sample was loaded into each lane of a 4-20% Tris-Glycine Criterion 26-well gel (Biorad, cat.#345-0034) for the phospho-mu2 blot and 10 μl per lane in a 4-12% Bis-Tris (+MES buffer) NuPAGE 26-well gel (Invitrogen, cat.#WG1403BX10) for the mu2 blot. For controls, 2 ng of phospho-mu2 or 20 ng mu2/Flag proteins were loaded in the last well of each gel. After SDS-PAGE, samples on each gel were transferred to PVDF membrane using an iBlot and membranes were blocked for one hour in TBST+5% milk, followed by wash 3× for 5-10 min with TBST. Criterion gels were probed with rabbit anti-phospho-mu2 (1:5000; a rabbit polyclonal antibody produced by New England Peptide and affinity purified at Lexicon) in TBST+5% BSA, whereas, NuPAGE gels were probed with mouse anti-Flag (1:500; Sigma, cat.#F1804) in TBST+5% milk, and these primary antibodies were incubated overnight at 4° C. on a rocker.

T1 sequence (Q2M2I8 1-863 isoform Q2M2I8-2): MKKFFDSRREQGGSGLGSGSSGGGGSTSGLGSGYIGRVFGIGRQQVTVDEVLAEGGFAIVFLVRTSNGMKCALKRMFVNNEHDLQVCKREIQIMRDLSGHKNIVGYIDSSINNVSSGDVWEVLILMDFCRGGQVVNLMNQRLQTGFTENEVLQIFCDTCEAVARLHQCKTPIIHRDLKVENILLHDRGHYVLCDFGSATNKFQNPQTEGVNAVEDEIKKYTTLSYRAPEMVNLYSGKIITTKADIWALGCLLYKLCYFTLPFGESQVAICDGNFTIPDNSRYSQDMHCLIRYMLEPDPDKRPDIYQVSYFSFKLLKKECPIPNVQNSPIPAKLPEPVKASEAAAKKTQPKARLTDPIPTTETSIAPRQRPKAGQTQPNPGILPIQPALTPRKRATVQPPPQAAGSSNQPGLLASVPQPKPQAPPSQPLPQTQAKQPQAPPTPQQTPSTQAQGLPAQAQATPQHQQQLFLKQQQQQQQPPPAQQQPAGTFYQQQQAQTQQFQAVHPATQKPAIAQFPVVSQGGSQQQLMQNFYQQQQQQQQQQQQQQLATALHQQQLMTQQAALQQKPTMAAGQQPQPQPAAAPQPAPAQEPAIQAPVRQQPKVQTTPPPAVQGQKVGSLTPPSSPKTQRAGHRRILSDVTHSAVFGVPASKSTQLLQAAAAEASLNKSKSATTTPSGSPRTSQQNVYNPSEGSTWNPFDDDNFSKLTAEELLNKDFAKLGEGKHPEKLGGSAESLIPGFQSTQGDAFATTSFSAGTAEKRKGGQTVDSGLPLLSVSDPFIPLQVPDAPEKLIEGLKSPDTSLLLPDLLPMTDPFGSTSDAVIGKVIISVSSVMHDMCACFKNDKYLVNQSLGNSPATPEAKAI

SMILES | IC50 [nM]
CCCCNc1ccc2ncc(-c3ccc(C(=O)NCCCN)cc3)n2n1 [N-(3-aminopropyl)-4-(6-(butylamino)imidazo[1,2-b]pyridazin-3-yl)benzamide] | ≤ 1000
CCCCNc1ccc2ncc(-c3ccc(CNC(C)(C)C)cc3F)n2n1 [N-butyl-3-(4-((tert-butylamino)methyl)-2-fluorophenyl)imidazo[1,2-b]pyridazin-6-amine] | ≤ 1000
CCN(CC)CCNC(=O)c1ccc(-c2cnc3ccc(NCCOC(C)(C)C)nn23)cc1 [4-(6-((2-(tert-butoxy)ethyl)amino)imidazo[1,2-b]pyridazin-3-yl)-N-(2-(diethylamino)ethyl)benzamide] | ≤ 100
NCc1ccc(-c2cnc3ccc(NCCCc4cccc(F)c4)nn23)cc1 [3-(4-(aminomethyl)phenyl)-N-(3-(3-fluorophenyl)propyl)imidazo[1,2-b]pyridazin-6-amine] | ≤ 100
CN(CCNc1ccc2ncc(-c3ccnc(N)c3)n2n1)C(=O)OC(C)(C)C [tert-butyl (2-((3-(2-aminopyridin-4-yl)imidazo[1,2-b]pyridazin-6-yl)amino)ethyl)(methyl)carbamate] | ≤ 10
CC(C)OCCNc1ccc2ncc(-c3ccc(C4CCCN4)cc3)n2n1 (centres unmarked) [N-(2-isopropoxyethyl)-3-(4-(pyrrolidin-2-yl)phenyl)imidazo[1,2-b]pyridazin-6-amine] | ≤ 100
CCOc1ccccc1CCNc1ccc2ncc(-c3ccc(C(=O)NC)cc3)n2n1 [4-(6-((2-ethoxyphenethyl)amino)imidazo[1,2-b]pyridazin-3-yl)-N-methylbenzamide] | ≤ 10
CCN(CC)CCNC(=O)c1ccc(-c2cnc3ccc(NCCOCC(C)C)nn23)cc1 [N-(2-(diethylamino)ethyl)-4-(6-((2-isobutoxyethyl)amino)imidazo[1,2-b]pyridazin-3-yl)benzamide] | ≤ 100
COC(=O)N1CCC[C@H]1CNc1ccc2ncc(Br)n2n1 [(S)-methyl 2-(((3-bromoimidazo[1,2-b]pyridazin-6-yl)amino)methyl)pyrrolidine-1-carboxylate] | ≤ 1000
CC(C)OC(=O)N1CCN(c2ccc3ncc(-c4cccc5c4OCC5)n3n2)CC1 [isopropyl 4-(3-(2,3-dihydrobenzofuran-7-yl)imidazo[1,2-b]pyridazin-6-yl)piperazine-1-carboxylate] | ≤ 100
COc1ncccc1-c1cnc2ccc(NCCOC3CCCC3)nn12 [N-(2-(cyclopentyloxy)ethyl)-3-(2-methoxypyridin-3-yl)imidazo[1,2-b]pyridazin-6-amine] | ≤ 100
CC(C)OC(=O)N1CCN(c2ccc3ncc(-c4ccncc4)n3n2)CC1 [isopropyl 4-(3-(pyridin-4-yl)imidazo[1,2-b]pyridazin-6-yl)piperazine-1-carboxylate] | ≤ 100
CCCCNc1ccc2ncc(-c3ccc(C(=O)NCCN)c(F)c3)n2n1 [N-(2-aminoethyl)-4-(6-(butylamino)imidazo[1,2-b]pyridazin-3-yl)-2-fluorobenzamide] | ≤ 100
CCOC(=O)N1CCC[C@H]1CNc1ccc2ncc(-c3ccncc3)n2n1 [(S)-ethyl 2-(((3-(pyridin-4-yl)imidazo[1,2-b]pyridazin-6-yl)amino)methyl)pyrrolidine-1-carboxylate] | ≤ 100
CC(C)OCCNc1ccc2ncc(-c3ccc(C(=O)NCCN4CCCC4)cc3)n2n1 [4-(6-((2-isopropoxyethyl)amino)imidazo[1,2-b]pyridazin-3-yl)-N-(2-(pyrrolidin-1-yl)ethyl)benzamide] | ≤ 100
CNCCOCc1ccc(-c2cnc3ccc(NCCC(C)(C)C)nn23)cc1 [N-(3,3-dimethylbutyl)-3-(4-((2-(methylamino)ethoxy)methyl)phenyl)imidazo[1,2-b]pyridazin-6-amine] | ≤ 100

SMILES | IC50 [nM]
CC(C)(C)CCNc1ccc2ncc(-c3ccc(C(=O)NCCN)cc3)n2n1 [N-(2-aminoethyl)-4-(6-((3,3-dimethylbutyl)amino)imidazo[1,2-b]pyridazin-3-yl)benzamide] | ≤ 1000
CCCCNc1ccc2ncc(-c3sc(C)nc3C)n2n1 [N-butyl-3-(2,4-dimethylthiazol-5-yl)imidazo[1,2-b]pyridazin-6-amine] | ≤ 100
Cc1nc(C)c(-c2cnc3ccc(NCCN(C)C(=O)OC(C)C)nn23)s1 [isopropyl (2-((3-(2,4-dimethylthiazol-5-yl)imidazo[1,2-b]pyridazin-6-yl)amino)ethyl)(methyl)carbamate] | ≤ 100
NCc1ccc(-c2cnc3ccc(NCCc4ccccc4)nn23)cc1 [3-(4-(aminomethyl)phenyl)-N-phenethylimidazo[1,2-b]pyridazin-6-amine] | ≤ 1000
CC(C)(C)CCNc1ccc2ncc(-c3ccc(C4CCCN4)cc3)n2n1 (centres unmarked) [N-(3,3-dimethylbutyl)-3-(4-(pyrrolidin-2-yl)phenyl)imidazo[1,2-b]pyridazin-6-amine] | ≤ 1000
CCCCNc1ccc2ncc(-c3ccc4c(c3)CNC4)n2n1 [N-butyl-3-(isoindolin-5-yl)imidazo[1,2-b]pyridazin-6-amine] | ≤ 1000
COc1cnccc1-c1cnc2ccc(NCCN(C(=O)OC(C)C)C(C)C)nn12 [isopropyl isopropyl(2-((3-(3-methoxypyridin-4-yl)imidazo[1,2-b]pyridazin-6-yl)amino)ethyl)carbamate] | ≤ 10
COc1ccccc1-c1cnc2ccc(NC[C@@H]3CCCN3C(=O)CC(C)C)nn12 [(S)-1-(2-(((3-(2-methoxyphenyl)imidazo[1,2-b]pyridazin-6-yl)amino)methyl)pyrrolidin-1-yl)-3-methylbutan-1-one] | ≤ 10
COc1ccccc1CCNc1ccc2ncc(-c3ccc(C(N)=O)cc3)n2n1 [4-(6-((2-methoxyphenethyl)amino)imidazo[1,2-b]pyridazin-3-yl)benzamide] | ≤ 10
COc1cnccc1-c1cnc2ccc(NCCC(C)C)nn12 [N-isopentyl-3-(3-methoxypyridin-4-yl)imidazo[1,2-b]pyridazin-6-amine] | ≤ 100
CCCCNc1ccc2ncc(-c3ccc(C(=O)N4CCC(N)CC4)cc3)n2n1 [(4-aminopiperidin-1-yl)(4-(6-(butylamino)imidazo[1,2-b]pyridazin-3-yl)phenyl)methanone] | ≤ 1000
CCOC(=O)N1CCC[C@H]1CNc1ccc2ncc(-c3ccc(C4CCCN4)cc3)n2n1 (stereo partly drawn) [(2S)-ethyl 2-(((3-(4-(pyrrolidin-2-yl)phenyl)imidazo[1,2-b]pyridazin-6-yl)amino)methyl)pyrrolidine-1-carboxylate] | ≤ 100
NCc1ccc(-c2cnc3ccc(NCC4CCOC4)nn23)cc1 (centres unmarked) [3-(4-(aminomethyl)phenyl)-N-((tetrahydrofuran-3-yl)methyl)imidazo[1,2-b]pyridazin-6-amine] | ≤ 1000
CC(C)OC(=O)N(C)CCNc1ccc2ncc(-c3ccc([C@@H]4CCCN4)cc3)n2n1 [(S)-isopropyl methyl(2-((3-(4-(pyrrolidin-2-yl)phenyl)imidazo[1,2-b]pyridazin-6-yl)amino)ethyl)carbamate] | ≤ 100
CCCCNc1ccc2ncc(-c3ccc(C(=O)NCCN)cc3F)n2n1 [N-(2-aminoethyl)-4-(6-(butylamino)imidazo[1,2-b]pyridazin-3-yl)-3-fluorobenzamide] | ≤ 1000
CCOC(=O)N1CCC[C@H]1CNc1ccc2ncc(-c3ccncc3OC)n2n1 [(S)-ethyl 2-(((3-(3-methoxypyridin-4-yl)imidazo[1,2-b]pyridazin-6-yl)amino)methyl)pyrrolidine-1-carboxylate] | ≤ 100
